Laboratory results: article PMC12736194, “1-Azinyl-1′-Alkenylferrocenes with Anticholinesterase, Antioxidant, and Antiaggregating Activities as Multifunctional Agents for Potential Treatment of Alzheimer’s Disease” (Pharmaceuticals, 2025)

Columns and labels:
[1] = target: T1, equine (Equus caballus) serum BChE (EcBChE) (Equus caballus, UniProt P81908); assay: Inhibition of EcBChE (spectrophotometric, BTCh iodide substrate); assay type: biochemical; settings: mean ± SEM, n = 3; for Inhibition of EcBChE, % inhibition at 20 μM: compound 20 μM, n.a. = not active; for IC50: K/Na-phosphate buffer pH 7.5, 25 °C
T1 construct: equine (Equus caballus) serum BChE (EcBChE); purchased Sigma-Aldrich; host or cells: horse serum
Description: (§1) In these experiments, human (Homo sapiens) erythrocyte AChE (HsAChE), equine (Equus caballus) serum BChE (EcBChE), and porcine (Sus scrofa) liver CES (SsCES) were used because of their ready availability, relatively low cost, and high sequence homology of EcBChE and SsCES to the corresponding human enzymes.
(§2) Enzymes, substrates, and reference compounds were sourced from Sigma-Aldrich (St. Louis, MO, USA). Enzyme activity was measured spectrophotometrically according to [91] using ATCh iodide, BTCh iodide, and 4-NPA as substrates for HsAChE, EcBChE, and SsCES, respectively. Experimental conditions included a K/Na-phosphate buffer (100 mM), at 25 °C, with pH 7.5 for AChE and BChE assays, and pH 8.0 for CES assays. Measurements were conducted on a BioRad Benchmark Plus microplate spectrophotometer (Hercules, CA, USA). Test compounds were dissolved in DMSO with a final solvent concentration of 2% (v/v) in the incubation mixture.

[2] = test system: porcine (Sus scrofa) liver CES (SsCES); assay: Inhibition of SsCES (spectrophotometric, 4-NPA substrate); assay type: biochemical; settings: mean ± SEM, n = 3; for Inhibition of SsCES, % inhibition at 20 μM: compound 20 μM, n.a. = not active
Text: as §1
Although the dominant carboxylesterase in porcine liver is CES1 [64], the preparation sourced from Sigma-Aldrich is not a purified or recombinant CES1. Therefore, we have designated the preparation used in our experimental studies as SsCES. However, in computational molecular docking studies, it is necessary to choose a single defined protein as the docking target. Thus, the logical choice for our computational studies of CES was the most abundant and best characterized isoform found in porcine liver, which is SsCES1.
as §2

[3] = target: T2, peripheral anionic site (PAS) of Electrophorus electricus AChE (EeAChE) (Electrophorus electricus, UniProt O42275); assay: Propidium displacement from the EeAChE PAS (fluorescence); assay type: binding; settings: compound concentration 20 µM; EeAChE 7 μM, propidium iodide 8 μM, Tris-HCl pH 8.0; n.a. = not active
T2 construct: purchased Sigma-Aldrich type VI-S
Description: A fluorescence-based assay assessed the ability of test compounds to competitively displace propidium iodide from AChE’s PAS [65, 93]. […] EeAChE (7 μM) was incubated with 20 μM test compounds in Tris-HCl buffer (pH 8.0) for 15 min, followed by addition of propidium iodide (8 μM) as described in detail in [95]. Fluorescence readings (530 nm excitation, 600 nm emission) were obtained using a FLUOStar Optima microplate reader (LabTech, Ortenberg, Germany). Displacement (%) was calculated.

[4] = target: T3, human β-amyloid (1–42) (HsAβ42) (Homo sapiens, UniProt P05067); assay: Inhibition of HsAβ42 self-aggregation (thioflavin T fluorescence); assay type: biochemical; settings: HsAβ42 50 µM, compound 100 µM, 24 h, 37 °C; n.a. = not active
T3 construct: purchased AnaSpec Inc
Description: The potential of compounds from all three groups (1a-e, 5a-e, 7a-d) to inhibit HsAβ42 self-aggregation was evaluated using a Thioflavin T (ThT) fluorescence assay.
Inhibition of HsAβ42 self-aggregation by test compounds was studied using the thioflavin T (ThT) fluorescence method with minor modifications as described in detail in [79]. Lyophilized HFIP-pretreated HsAβ42 (AnaSpec Inc., Fremont, CA, USA, 0.5 mg) was dissolved in DMSO to obtain a stable 500 μM solution. The samples of 50 μM HsAβ42 in 215 mM Na-phosphate buffer pH 8.0 were incubated for 24 h at 37 °C in the absence or presence of 100 μM test compounds. Myricetin in the same concentration was used as a reference. After incubation, 5 μM ThT in 50 mM glycine-NaOH buffer pH 8.5 was added, and the fluorescence was measured at 440 nm (exc.) and 485 nm (emis.) with a FLUOStar Optima microplate reader. Blanks consisted of 215 mM Na-phosphate buffer, pH 8.0, 20% (v/v) DMSO or test compounds, respectively. The inhibition (%) of HsAβ42 self-aggregation by the test compounds was calculated.

[5] = ABTS radical cation scavenging activity assay;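 as to Exp. ABTS, TEAC: same experimental ABTS TEAC values reprinted in Table 4 beside calculated BDE and IP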; settings: for IC50: ABTS^•+ 100 μM; for IC50 / ABTS^•+-Scavenging Activity, TEAC: ethanol, 1 h; for Exp. ABTS, TEAC: Ethanol, Table 4; for ABTS^•+-Scavenging Activity, TEAC: Trolox equivalent antioxidant capacity, mean ± SEM, n = 3
[6] = Ferric reducing antioxidant power (FRAP) assay;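 as to Exp. FRAP, TE: same experimental FRAP TE values reprinted in Table 4 beside calculated BDE and IP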; settings: for Ferric Reducing Antioxidant Power, TE: Trolox equivalents, acetate buffer pH 3.6, 1 h, 37 °C; for Exp. FRAP, TE: Water, Table 4
[7] = target: T4, human (Homo sapiens) erythrocyte AChE (HsAChE) (Homo sapiens, UniProt P22303); assay: Inhibition of HsAChE (spectrophotometric, ATCh iodide substrate); assay type: biochemical; settings: mean ± SEM, n = 3; for Inhibition of HsAChE, % inhibition at 20 μM: compound 20 μM, n.a. = not active
T4 construct: human (Homo sapiens) erythrocyte AChE (HsAChE); purchased Sigma-Aldrich; host or cells: human erythrocytes
Description: as §1, §2

T2 sequence (O42275 24-633): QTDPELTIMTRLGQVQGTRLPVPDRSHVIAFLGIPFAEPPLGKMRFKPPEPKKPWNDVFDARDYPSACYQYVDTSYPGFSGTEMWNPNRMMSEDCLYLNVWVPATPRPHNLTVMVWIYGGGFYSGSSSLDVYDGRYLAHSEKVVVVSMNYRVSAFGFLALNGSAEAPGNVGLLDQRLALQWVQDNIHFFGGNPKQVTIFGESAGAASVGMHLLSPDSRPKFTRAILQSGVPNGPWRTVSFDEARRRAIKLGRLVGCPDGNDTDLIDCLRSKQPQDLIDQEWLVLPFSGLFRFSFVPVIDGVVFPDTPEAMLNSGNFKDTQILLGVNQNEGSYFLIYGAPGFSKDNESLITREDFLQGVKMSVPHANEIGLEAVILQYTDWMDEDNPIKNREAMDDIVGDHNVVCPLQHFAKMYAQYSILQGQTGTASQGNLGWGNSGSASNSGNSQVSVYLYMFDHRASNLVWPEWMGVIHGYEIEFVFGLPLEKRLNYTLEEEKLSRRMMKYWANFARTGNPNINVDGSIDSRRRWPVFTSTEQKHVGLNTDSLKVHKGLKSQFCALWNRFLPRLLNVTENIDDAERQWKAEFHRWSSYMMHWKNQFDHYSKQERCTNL
T3 sequence (P05067 672-713 limits assumed): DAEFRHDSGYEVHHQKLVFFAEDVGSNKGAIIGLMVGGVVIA
T4 sequence (P22303 32-617 isoform P22303-2 limits assumed): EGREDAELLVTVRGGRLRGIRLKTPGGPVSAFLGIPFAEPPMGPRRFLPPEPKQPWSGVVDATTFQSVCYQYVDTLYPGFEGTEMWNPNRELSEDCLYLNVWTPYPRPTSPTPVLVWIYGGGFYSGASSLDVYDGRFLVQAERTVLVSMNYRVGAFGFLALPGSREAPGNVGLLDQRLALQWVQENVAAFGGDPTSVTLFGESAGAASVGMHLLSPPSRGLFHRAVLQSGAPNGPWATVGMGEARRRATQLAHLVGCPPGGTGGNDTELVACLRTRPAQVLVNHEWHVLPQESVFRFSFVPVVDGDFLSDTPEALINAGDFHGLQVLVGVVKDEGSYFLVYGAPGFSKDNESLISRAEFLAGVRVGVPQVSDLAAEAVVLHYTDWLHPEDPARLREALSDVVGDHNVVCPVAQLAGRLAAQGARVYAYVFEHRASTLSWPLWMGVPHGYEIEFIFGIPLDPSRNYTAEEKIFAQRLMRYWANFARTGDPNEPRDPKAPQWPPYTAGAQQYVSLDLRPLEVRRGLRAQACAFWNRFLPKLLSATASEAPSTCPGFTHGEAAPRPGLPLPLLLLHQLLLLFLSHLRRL
T1 sequence (P81908 whole entry): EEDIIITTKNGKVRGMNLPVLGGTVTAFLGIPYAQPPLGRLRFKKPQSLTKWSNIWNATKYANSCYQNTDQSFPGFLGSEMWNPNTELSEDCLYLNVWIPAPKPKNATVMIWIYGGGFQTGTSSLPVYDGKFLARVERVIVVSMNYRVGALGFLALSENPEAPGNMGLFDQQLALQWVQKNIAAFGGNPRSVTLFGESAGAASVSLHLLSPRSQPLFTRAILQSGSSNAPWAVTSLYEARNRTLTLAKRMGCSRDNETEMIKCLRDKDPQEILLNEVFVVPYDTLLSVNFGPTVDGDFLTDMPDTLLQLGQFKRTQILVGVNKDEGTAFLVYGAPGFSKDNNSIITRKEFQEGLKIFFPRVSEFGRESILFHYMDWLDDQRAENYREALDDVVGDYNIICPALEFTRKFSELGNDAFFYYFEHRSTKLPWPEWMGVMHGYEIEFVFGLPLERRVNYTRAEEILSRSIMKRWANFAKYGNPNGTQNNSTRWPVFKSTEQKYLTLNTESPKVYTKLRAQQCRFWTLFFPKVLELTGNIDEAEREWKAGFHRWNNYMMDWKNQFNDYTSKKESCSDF

Structure (SMILES)	Inhibition of EcBChE, % inhibition at 20 μM [1] [%]	Inhibition of SsCES, % inhibition at 20 μM [2] [%]	Propidium Displacement, (%) [3]	HsAβ42 self-Aggregation Inhibition, (%) [4] [%]	IC50 [5] [µM]	Exp. ABTS, TEAC [5]	ABTS^•+-Scavenging Activity, TEAC [5]	Ferric Reducing Antioxidant Power, TE [6]	Exp. FRAP, TE [6]	Inhibition of HsAChE, % inhibition at 20 μM [7] [%]	IC50 [1] [µM]	IC50 ([7]; K/Na-phosphate buffer pH 7.5, 25 °C) [µM]	IC50 ([2]; K/Na-phosphate buffer pH 8.0, 25 °C) [µM]
[Fe+2].c1cc[cH-]c1.c1ccc(-[c-]2cccc2)nc1 [1a]	20.3 ± 1.4	17.5 ± 1.3	zero	43.4 ± 3.4	10.8 ± 0.6	2.10 ± 0.10	2.1 ± 0.1	2.05 ± 0.02	–	–	–	–	–
[Fe+2].c1cc[cH-]c1.c1ccc(-[c-]2cccc2)[nH+]c1 [1ap]	–	–	–	–	–	2.10 ± 0.10	–	–	2.05 ± 0.02	–	–	–	–
[Fe+2].c1cc[cH-]c1.c1ccc2[nH+]c(-[c-]3cccc3)ccc2c1 [1bp]	–	–	–	–	–	4.20 ± 0.20	–	–	2.21 ± 0.01	–	–	–	–
[Fe+2].c1cc[cH-]c1.c1ccc2c(-[c-]3cccc3)c3ccccc3nc2c1 [1c]	21.2 ± 1.6	–	11.2 ± 0.9%	71.0 ± 4.9	14.6 ± 0.3	–	1.50 ± 0.08	1.59 ± 0.17	–	6.5 ± 0.8	–	–	–
[Fe+2].c1cc[cH-]c1.c1ccc2c(-[c-]3cccc3)c3ccccc3[nH+]c2c1 [1cp]	–	–	–	–	–	1.50 ± 0.08	–	–	1.59 ± 0.17	–	–	–	–
[Fe+2].c1cc[c-](-c2ccnnc2)c1.c1cc[cH-]c1 [1e, 1-(pyridazin-4-yl)ferrocene]	13.1 ± 1.4	–	zero	53.3 ± 3.7	9.2 ± 0.5	–	2.3 ± 0.1	1.72 ± 0.02	–	–	–	–	–
C=C(C)[c-]1cccc1.[Fe+2].c1ccc(-[c-]2cccc2)nc1 [5a]	18.3 ± 1.6	–	zero	62.4 ± 4.9	9.4 ± 0.5	2.20 ± 0.10	2.2 ± 0.1	2.85 ± 0.13	–	4.4 ± 1.1	–	–	–
C=C(C)[c-]1cccc1.[Fe+2].c1ccc(-[c-]2cccc2)[nH+]c1 [5ap]	–	–	–	–	–	2.20 ± 0.10	–	–	2.85 ± 1.3	–	–	–	–
C=C(C)[c-]1cccc1.[Fe+2].c1ccc2[nH+]c(-[c-]3cccc3)ccc2c1 [5bp]	–	–	–	–	–	4.30 ± 0.20	–	–	3.13 ± 1.7	–	–	–	–
C=C(C)[c-]1cccc1.[Fe+2].c1ccc2c(-[c-]3cccc3)c3ccccc3nc2c1 [5c]	–	–	10.5 ± 0.9%	90.1 ± 7.2	15.8 ± 0.8	–	1.35 ± 0.06	2.45 ± 0.14	–	36.7 ± 3.3	96.7 ± 6.6	–	–
C=C(C)[c-]1cccc1.[Fe+2].c1ccc2c(-[c-]3cccc3)c3ccccc3[nH+]c2c1 [5cp]	–	–	–	–	–	1.35 ± 0.06	–	–	2.45 ± 0.14	–	–	–	–
C=C(C)[c-]1cccc1.[Fe+2].c1cc[c-](-c2ccnnc2)c1 [5e, 1-Isopropenyl-1′-(Pyridazin-4-yl)Ferrocene]	–	–	zero	48.6 ± 3.5	9.3 ± 0.4	–	2.5 ± 0.2	2.65 ± 0.02	–	–	–	–	–
C=C[c-]1cccc1.[Fe+2].c1ccc(-[c-]2cccc2)nc1 [7a, 1-(Pyridin-2-yl)-1′-Vinylferrocene]	–	18.5 ± 1.6	9.6 ± 0.7%	84.6 ± 7.5	8.4 ± 0.3	2.60 ± 0.03	2.60 ± 0.08	2.13 ± 0.03	–	–	20.1 ± 1.6	16.5 ± 1.3	–
C=C[c-]1cccc1.[Fe+2].c1ccc(-[c-]2cccc2)[nH+]c1 [7ap]	–	–	–	–	–	2.60 ± 0.03	–	–	2.13 ± 0.03	–	–	–	–
C=C[c-]1cccc1.[Fe+2].c1ccc2[nH+]c(-[c-]3cccc3)ccc2c1 [7bp]	–	–	–	–	–	–	–	–	2.21 ± 0.02	–	–	–	–
C=C[c-]1cccc1.[Fe+2].c1ccc2c(-[c-]3cccc3)c3ccccc3nc2c1 [7c, 1-(Acridin-9-yl)-1′-Vinylferrocene]	7.6 ± 1.1	14.1 ± 1.5	10.4 ± 0.8%	86.9 ± 6.1	6.9 ± 0.3	–	2.9 ± 0.1	1.36 ± 0.01	–	22.8 ± 1.8	–	–	–
C=C[c-]1cccc1.[Fe+2].c1ccc2c(-[c-]3cccc3)c3ccccc3[nH+]c2c1 [7cp]	–	–	–	–	–	–	–	–	1.36 ± 0.01	–	–	–	–
O=[N+]([O-])c1ccc(OP(=O)(O)Oc2ccc([N+](=O)[O-])cc2)cc1 [BNPP, bis-4-nitrophenyl phosphate, reference compound]	–	99.1 ± 0.9	–	–	–	–	–	–	–	–	–	–	1.8
[Fe+2].c1cc[cH-]c1.c1cc[cH-]c1 [Fc, ferrocene]	6.7 ± 1.0	4.2 ± 0.7	zero	3.5 ± 0.4	32.9 ± 1.9	0.57 ± 0.03	0.57 ± 0.03	0.79 ± 0.02	0.79 ± 0.02	9.6 ± 1.4	–	–	–
Cc1c(C)c2c(c(C)c1O)CCC(C)(C(=O)O)O2 (stereo not shown) [Trolox, reference compound]	–	–	–	–	20.1 ± 1.2	–	1.0	1.0	–	–	–	–	–
C=C(C)[c-]1cccc1.[Fe+2].c1cc[cH-]c1 [compound 8, isopropenylferrocene, reference compound]	3.9 ± 0.8	2.9 ± 0.6	zero	–	26.3 ± 1.5	0.73 ± 0.04	0.73 ± 0.04	1.1 ± 0.1	1.10 ± 0.10	–	–	–	–
C=C[c-]1cccc1.[Fe+2].c1cc[cH-]c1 [compound 9, vinylferrocene, reference compound]	–	23.4 ± 2.1	zero	44.9 ± 3.1	19.4 ± 0.1	1.00 ± 0.04	1.00 ± 0.04	1.04 ± 0.02	1.04 ± 0.02	4.2 ± 0.9	–	–	–
